One assay has as its target integrin α5β1 (Homo sapiens, UniProt P05556+P08648). Briefly: Solid phase ELISA of integrin α5β1 binding. The following applies: peptides 35 μM; EDTA 5 mM. As for the experimental part:
In a second approach, a solid phase binding assay was used in which CTGF1-4 or FN were individually coated onto microtiter wells that were subsequently incubated with purified integrin α5β1. The presence of immobilized integrin α5β1 was detected by ELISA using an anti-integrin α5β1 antibody similar to the methods described in Example 3 above. In addition, CTGF1-4 bound to integrin α5β1 in a dose-dependent manner, with maximal binding at 2 μg/ml CTGF. This level of CTGF1-4 (2 μg/ml) binding was the same as that elicited by 2 μg/ml FN, a well known ligand of integrin α5β1. In a similar experiment, 2 μg/ml of CTGF1-4;CTGF3-4 or CTGF4 were individually precoated onto microtiter wells. Using the solid-phase assay, integrin α5β1 bound to CTGF1-4, CTGF3-4 or CTGF4 See FIG. 5 (Panel B).
To directly analyze whether α5β1 integrin binds to CTGF4, microtiter wells coated with CTGF4 (2 μg/ml) or FN (4 μg/ml) were used in an ELISA assay to detect integrin binding, as described in Example 3. For these assays, 1 μg/ml integrin α5β1, alone or in the presence of 35 μM of P2peptide (CTGF[257-272]) and 35 μM of P5 peptide (CTGF [285-291]), were added to the precoated plates. […] The binding between CTGF4 and integrin α5 β1 was blocked by peptide P5 (CTGF [285-291]) or peptide P2 (CTGF[257-272]). […]
A general note: In an ELISA, binding on a coated surface is turned into a signal by an enzyme label.

Assay [1] concerns hepatic stellate cells (HSC). The experiment in a line: HSC adhesion assay on coated wells (CyQUANT fluorescence). The format is cell-based, rat. To be noted: for inhibition of CTGF4-mediated HSC adhesion: wells coated 2 μg/ml CTGF4, antibody/IgG 25 μg/ml. As to the method: CTGF4 is known to be expressed in hepatic stellate cells (HSC) and to induce proliferation and extracellular matrix (ECM) production in these cells. (Williams et al., J Hepatol 32, 754-761, 2000; Paradis et al., Lab Invest 82, 767-774, 2002). The following experiments were carried out to determine if HSCs adhere to CTGF. HSCs were isolated from normal Sprague-Dowley rate by sequential perfusion with pronase/collagenase and purified by density gradient separation as described in Vyas et al. (Gastroenterology 109: 889-898, 1995).
The cells were subsequently detached using 1 mM EDTA PBS (137 mM NaCl, 2.7 mM KCl, 4.3 mM Na2HPO4, 1.4 mM KH2PO4, pH 7.3), washed twice in DMEM and resuspended in serum free medium containing 0.5% BSA. The cells-were plated (1.25×10^4 cells/well) in a 96 well plate coated with one of the following: 2 μg/ml CTGF isoform (CTGF1-4, CTGF3-4, CTGF4), 1 μg/ml laminin, or 4 μg/ml vitronectin and incubated for 20 minutes at 37° C. Subsequently the cells were washed with PBS and the adherent cells were fixed with 10% formalin and stained with CyQUANT GR dye/cell lysis buffer (Molecular Probes , Eugene, Oreg.) according to the manufacturer's instructions. The number of cells that adhered to CTGF isoforms or ECM protein was quantified by measuring the sample fluorescence intensity at Ex/Em: 480/520 nm using a micro-plate reader (CytoFluor™ 2350).
To determine if the CTGF-mediated HSC adhesion was carried out through integrin receptors, the experiment described above were carried out in the presence and absence of 10 mM EDTA. […] It is widely believed that Mn^2+ induces conformational shifts that mimic the physiological activation of β1 and β3 integrins (Roberts et al., J Biol Chem 278: 1975-1985, 2003, van der Pauw et al., J Periodontal Res 37: 317-323, 2002) as Mn^2+-induced activation leads to enhanced ligand-binding affinity and cell adhesion (Mould et al., J Biol Chem 277: 19800-19805, 2002, Loftus & Liddington J Clin Invest 100: S77-81, 1997, Lin et al., J Biol Chem 272: 14236-14243, […]).
Synthetic peptides GRGDsp (1 mM), GRGEsp (1 mM), Echistatin (2 μM) or vehicle buffer alone were added to the, HSC culture medium 30 minutes prior to plating.
In addition, adhesion assays as described in Example 1 were carried out in CTGF4 coated plates in the presence and absence of monoclonal antibody specific for αvβ3 (LM609).

Assay [2] relates to vascular endothelial cells, intestinal epithelial, and hepatic stellate cells. Briefly: Adhesion of cell types to 10 kDa CTGF. The format is cell-based. As for the experimental part: To confirm the functionality of residues 247-349 of SEQ ID NO: 1 (containing module 4 alone; denoted as CTGF4), this region of CTGF was produced as a maltose binding protein (MBP) fusion protein in E. coli as described in Ball et al., J Endocrinol; 176: R1-R7, 2003. […] HPLC-purified 10 kDa CTGF promoted 3T3 cell adhesion in a dose-dependent manner, with maximal binding at 8 ng/well. […] Also, the binding of all cell types to 10 kDa CTGF was reduced by EDTA treatment, though this effect was relatively modest in 3T3 cells. Thus, E coli-derived CTGF isoforms comprising essentially module 4 are intrinsically functional in the absence of the other constituent modules of CTGF.

Assay [3] concerns pancreatic stellate cells (PSC). The experiment in a line: PSC adhesion assay on coated wells. It counts as cell-based, rat. To be noted: for inhibition of PSC adhesion to CTGF4: 2 μg/ml CTGF4 coat, peptides 35 μM; for inhibition of PSC adhesion to CTGF4 / inhibition of PSC adhesion to CTGF1-4: antibodies 25 μg/ml, heparin 2 μg/ml. An excerpt:
Rat PSCs were isolated by a modification of the method described by Phillips et al., Gut; 52:677-82, 2003. Briefly, pancreatic tissue was digested in situ with 0.03% collagenase P (Roche, Indianapolis, Ind.) in HBSS by perfusion through the thoracic aorta. This protocol was approved by the Institutional Animal Care and Use Committee of Children's Research Institute, Columbus, Ohio. The tissue was pooled, minced with scissors, and then digested with 0.05% collagenase P, 0.02% protease XIV (Sigma, St. Louis), and DNase I (Roche, Indianapolis, Ind.) in HBSS. The resulting cell suspension was centrifuged in a 12% Optiprep gradient at 1400 g for 14 minutes. Stellate cells separated into a hazy band just above the interface of a the gradient and the aqueous buffer. This band was harvested, and the cells washed and resuspended in DMEM supplemented with 25 mM Hepes buffer, 10% FBS, and 100 U/ml penicillin in, 100 μg/ml streptomycin. The, cells were maintained at 37° C. in a humidified atmosphere of 5% CO2/95% air.
The ability of activated PSC to adhere to non-tissue culture plastic microtiter wells coated with recombinant CTGF1-4, CTGF3-4 or CTGF4 was investigated. The solid phase binding assay was carried out as described in Example 2. […] To assess the possibility that CTGF-mediated PSC adhesion involved cell surface integrins, the effect of divalent cations on cell adhesion was examined, as described in Example 2. […]
Because CTGF is a heparin-binding protein, this property was further investigated.
To identify the peptides that bind to PSCs, cell adhesion assays were carried out as described in Example 3.
To further investigate the peptide binding, P2 or P5 (10 μM) or vehicle buffer alone (no add) were added to PSC cell suspensions for 30 minutes at room temperature.

Assay [4] relates to PSCs. Briefly: PSC chemotaxis (migration) assay in culture insert. The format is cell-based, rat. As to the method: To examine whether CTGF plays a role in PSC migration, a chemotaxis assay was carried out in which the migratory behavior of PSCs in the upper chamber of a culture insert was assessed following addition of CTGF to the lower chamber. […] PSC migration was also promoted by FN, PDGF or TGF-β1.

Another assay has as its system CTGF promoter. Briefly: CTGF promoter luciferase reporter pCCN2-Luc in PSCs. It counts as cell-based, rat. As for the experimental part: TGF-β1 is a well characterized transcriptional activator of CTGF in other cell types. To further examine the mechanism by which TGF-β1 and other fibrogenic stimulators could influence CTGF production in PSCs, CTGF promoter activity in PSCs was evaluated using the luciferase reporter, pCCN2-Luc, as described in Gao et al., (J Hepatol 2004;40:431-8).
(In general: A reporter such as luciferase makes a cellular process visible.)

For another assay, the system named is CTGF. The experiment in a line: CTGF production by PSCs (immunoprecipitation). The format is cell-based, rat. The following applies: TGF-β1 20 ng/ml; P<0.01.
The test system of assay [5] is PSCs. Briefly: PSC DNA synthesis, [3H]thymidine incorporation. It counts as cell-based, rat. To be noted: 24 hours; CTGF1-4 effect in 0.1% serum, not in serum-free medium. As to the method:
To measure the effect of CTGF on cell proliferation, DNA synthesis was measured by ^3H incorporation in PSCs. The cells were incubated for 24 hours with 0.2 μCi [^3H] thymidine in each well (24-well plate). The incorporation of [^3H] thymidine into PSC DNA was determined using a scintillation counter after the cells had been washed with PBS, fixed with 10% methanol, treated with cold 5% trichloroacetic acid, and lysed in 0.3 N NaOH.

[6] abbreviates: EDTA 10 mM, GRGDsp 1 mM, Echistatin 2 μM, heparin 2 μg/ml.

Sequence of integrin α5β1 (P08648 42-894 limits assumed): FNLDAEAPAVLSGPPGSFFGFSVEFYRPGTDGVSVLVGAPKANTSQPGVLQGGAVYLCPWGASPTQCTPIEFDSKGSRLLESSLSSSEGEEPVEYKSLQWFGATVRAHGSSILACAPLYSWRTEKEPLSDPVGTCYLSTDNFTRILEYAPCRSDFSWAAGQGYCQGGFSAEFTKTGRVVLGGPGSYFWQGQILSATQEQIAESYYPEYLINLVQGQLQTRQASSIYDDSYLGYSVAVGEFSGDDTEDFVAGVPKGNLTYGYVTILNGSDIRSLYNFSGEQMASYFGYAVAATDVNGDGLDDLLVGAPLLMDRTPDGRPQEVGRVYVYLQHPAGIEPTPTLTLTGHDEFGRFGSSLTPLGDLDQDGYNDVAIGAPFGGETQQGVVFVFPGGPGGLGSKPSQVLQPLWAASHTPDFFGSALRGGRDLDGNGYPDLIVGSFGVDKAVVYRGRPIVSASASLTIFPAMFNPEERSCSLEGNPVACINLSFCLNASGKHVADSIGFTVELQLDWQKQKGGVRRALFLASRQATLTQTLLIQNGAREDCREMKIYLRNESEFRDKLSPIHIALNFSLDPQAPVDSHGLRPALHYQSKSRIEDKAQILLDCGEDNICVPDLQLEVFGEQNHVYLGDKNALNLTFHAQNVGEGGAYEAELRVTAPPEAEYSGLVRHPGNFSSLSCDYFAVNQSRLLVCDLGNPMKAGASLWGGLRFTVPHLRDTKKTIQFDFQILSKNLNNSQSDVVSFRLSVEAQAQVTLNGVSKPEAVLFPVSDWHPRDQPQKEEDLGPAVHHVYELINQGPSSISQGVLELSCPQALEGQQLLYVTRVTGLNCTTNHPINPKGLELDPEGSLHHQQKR
Sequence of integrin α5β1 (P08648 895-1049 partner limits assumed): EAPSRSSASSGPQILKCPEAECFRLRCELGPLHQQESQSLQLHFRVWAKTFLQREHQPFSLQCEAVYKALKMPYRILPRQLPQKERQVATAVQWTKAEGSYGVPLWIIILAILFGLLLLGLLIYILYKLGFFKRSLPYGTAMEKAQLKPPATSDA
Sequence of integrin α5β1 (P05556 21-798): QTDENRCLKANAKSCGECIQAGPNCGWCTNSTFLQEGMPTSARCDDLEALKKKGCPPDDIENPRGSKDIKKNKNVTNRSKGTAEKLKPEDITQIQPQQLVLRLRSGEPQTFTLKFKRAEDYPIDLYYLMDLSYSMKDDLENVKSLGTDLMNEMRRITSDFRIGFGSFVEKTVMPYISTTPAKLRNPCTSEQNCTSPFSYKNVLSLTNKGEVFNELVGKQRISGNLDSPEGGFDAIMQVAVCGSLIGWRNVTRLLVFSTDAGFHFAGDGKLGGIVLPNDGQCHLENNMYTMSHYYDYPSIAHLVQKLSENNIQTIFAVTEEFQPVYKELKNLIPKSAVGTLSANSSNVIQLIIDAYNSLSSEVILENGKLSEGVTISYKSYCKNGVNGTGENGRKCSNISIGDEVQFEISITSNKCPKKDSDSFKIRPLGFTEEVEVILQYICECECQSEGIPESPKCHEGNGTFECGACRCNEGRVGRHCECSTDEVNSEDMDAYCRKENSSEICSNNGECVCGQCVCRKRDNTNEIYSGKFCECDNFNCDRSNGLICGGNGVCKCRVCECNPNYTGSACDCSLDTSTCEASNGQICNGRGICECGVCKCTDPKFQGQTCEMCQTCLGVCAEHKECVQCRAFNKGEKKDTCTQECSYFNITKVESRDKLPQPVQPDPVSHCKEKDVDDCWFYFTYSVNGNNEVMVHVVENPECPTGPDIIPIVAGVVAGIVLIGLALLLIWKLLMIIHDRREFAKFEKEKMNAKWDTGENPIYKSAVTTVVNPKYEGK

Regarding `O=C(O)CN(CCN(CC(=O)O)CC(=O)O)CC(=O)O` [EDTA, reference compound], the “inhibition of binding between CTGF4 and integrin α5β1” value on integrin α5β1 is on record as “blocked”. Besides, the “inhibition of CTGF1-4-mediated HSC adhesion” value in assay [1] (wells coated 2 μg/ml CTGF1-4, EDTA 10 mM, GRGDsp 1 mM, Echistatin 2 μM) was found to be 50%. Besides, the “inhibition of CTGF3-4-mediated HSC adhesion” value in assay [1] (wells coated 2 μg/ml CTGF3-4, EDTA 10 mM, GRGDsp 1 mM, Echistatin 2 μM) is 50%. Also, in assay [1] (setting [6]), the “inhibition of CTGF4-mediated HSC adhesion” value is listed as 90%. The “binding of all cell types to 10 kDa CTGF after EDTA treatment” value in assay [2] (effect relatively modest in 3T3 cells) was “reduced”. In assay [3] (EDTA 5 mM), the “inhibition of PSC adhesion to CTGF4” value is listed as “significantly decreased”, the “inhibition of PSC adhesion to CTGF3-4” value was “significantly decreased” and the “inhibition of PSC adhesion to CTGF1-4” value was “significantly decreased”.

Turning to “TGF-β1: transcriptional activator of CTGF”, the PSC migration entry in the assay on PSCs [4] (substance in lower chamber) is given as “promoted”. Besides, the “activity of pCCN2-Luc in PSC” value with CTGF promoter (P<0.01 compared with no stimulation) is “significantly increased”. The “activation of pCCN2-Luc compared among four stimulators” value in the assay with CTGF promoter (P<0.05) is given as “strongest activation”. The “CTGF1-4, CTGF3-4 and CTGF4 levels in cell lysates and conditioned medium” value in the assay with CTGF is given as “significantly increased”. Moreover, in the assay on PSCs [5], the “PSC proliferation (DNA synthesis)” value is given as “did not induce proliferation”.

With heparin, the “inhibition of PSC migration in response to CTGF” value in the assay on PSCs [4] (CTGF1-4 or CTGF4) is given as “blocked”. In assay [1] (peptide-coated wells, heparin 2 μg/ml), the “inhibition of HSC adherence to CTGF[257-272]” value is “abrogated”. Also, in assay [1] (setting [6]), the “inhibition of CTGF4-mediated HSC adhesion” value is given as “completely abrogated”. Further, in assay [1] (wells coated 4 μg/ml vitronectin), the “inhibition of vitronectin-mediated HSC adhesion” value is reported as “little effect”. In addition, in assay [2] (5 μg/ml heparin, each cell type incl. 3T3), the “inhibition of binding of each cell type to 10 kDa CTGF” value is reported as “completely inhibited”. Besides, in assay [3] (EDTA 5 mM), the “inhibition of PSC adhesion to CTGF4” value is given as “blocked” and the “inhibition of PSC adhesion to CTGF1-4” value is recorded as “blocked”. In assay [3] (fibronectin coat), the “inhibition of FN-mediated PSC adhesion” value is listed as “little effect”.
